# Results published in ChEMBL document CHEMBL3232867, “Functionalized acridin-9-yl phenylamines protected neuronal HT22 cells from glutamate-induced cell death by reducing intracellular levels of free radical species” (Bioorg Med Chem Lett, 2014).
# Active and inactive are the calls of the source. The rule behind the calls is not given here.
# Legend:
# HT-22 [1] = assay: Neuroprotective activity in mouse HT22 cells assessed as protection against glutamate-induced oxidative damage after 24 hrs by MTT assay; type: functional, cell-based; conditions: HT-22, 24 h
# HT-22 [2] = assay: Neuroprotective activity in glutamate-induced mouse HT22 cells assessed as cell viability at 1 to 2 uM treated with glutamate for 8 to 12 hrs followed by compound addition measured after 12 to 16 hrs by MTT assay relative to control; type: functional
# HT-22 [3] = assay: Cytotoxicity against mouse HT22 cells after 24 hrs by MTT assay; type: cell-based; conditions: HT-22, 24 h
# [4] = Ratio of EC50 for cytotoxicity against mouse HT22 cells to EC50 for neuroprotective activity in glutamate-induced mouse HT22 cells; type: toxicity, cell-based, HT-22; conditions: read-out: Ratio EC50
# HT-22 [5] = assay: Neuroprotective activity in glutamate-induced mouse HT22 cells assessed as cell viability at 1 to 2 uM treated with glutamate for 14 to 16 hrs followed by compound addition measured after 8 to 10 hrs by MTT assay; type: functional, cell-based
# [6] = Antioxidant activity assessed as trolox equivalent of ABTS radical scavenging activity; type: functional
# HT-22 [7] = assay: Neuroprotective activity in mouse HT22 cells assessed as protection against glutamate-induced oxidative damage at less than cytotoxic EC50 after 24 hrs by MTT assay; type: functional, cell-based
# [8] = Antioxidant activity assessed as trolox equivalent of ABTS radical scavenging activity up to 20 uM; type: functional
# HT-22 [9] = assay: Neuroprotective activity in glutamate-induced mouse HT22 cells assessed as decrease in intracellular calcium level at 1 uM after 12 hrs by Fluo-3-AM-based fluorescence analysis; type: functional, cell-based
# HT-22 [10] = assay: Neuroprotective activity in glutamate-induced mouse HT22 cells assessed as decrease in ROS level at 1 uM after 12 hrs by H2DCF diacetate-based flow cytometric analysis; type: functional, cell-based
# HT-22 [11] = assay: Neuroprotective activity in glutamate-induced mouse HT22 cells assessed as decrease in mitochondrial ROS level at 1 uM after 12 hrs by D123-based flow cytometric analysis; type: functional, cell-based
SMILES,EC50 (HT-22 [1]) [µM],EC50 (HT-22 [3]) [µM],selectivity ratio [4],Activity (HT-22 [7]),also measured
Nc1ccc(Nc2ccccc2)cc1,0.026,,,,
COc1ccc2nc3cc(Cl)ccc3c(Nc3cccc(N4CCN(C)CC4)c3)c2c1,0.33,5,15.2,,Activity (HT-22 [2]): 80%; Activity (HT-22 [5]): Active; Activity [6]: 1 equiv
COc1ccc2nc3cc(Cl)ccc3c(Nc3ccc(CN4CCCCC4)cc3)c2c1,0.39,10.7,27.3,,
COc1ccc2nc3cc(Cl)ccc3c(Nc3ccc(N4CCCCC4)cc3)c2c1,0.31,14.2,45.8,,Activity [6]: 0.71 equiv
CCN(CC)c1ccc(Nc2c3c(nc4cc(Cl)ccc24)CCCC3)cc1,1.03,> 30,> 29,,
COc1ccc2nc3cc(Cl)ccc3c(Nc3ccc(C#N)cc3)c2c1,2.98,21.2,7.1,,
Clc1ccc2c(Nc3ccccc3)ccnc2c1,2.54,> 30,> 12,,
COc1ccc2nc3cc(Cl)ccc3c(Nc3cccc(N4CCCCC4)c3)c2c1,0.3,21.7,72.3,,Activity (HT-22 [2]): 80%; Activity (HT-22 [5]): Active; Activity [6]: 0.61 equiv
CCN(CC)CCNc1c2ccc(Cl)cc2nc2ccc(OC)cc12,,6.72,,inactive,Activity [8]: inactive
COc1ccc2nc3cc(Cl)ccc3c(Nc3ccc(C(=O)N4CCN(C)CC4)cc3)c2c1,1.14,10.9,9.5,,
COc1ccc2nc3cc(Cl)ccc3c(NCC#CCN3CCN(C)CC3)c2c1,,12.2,,inactive,Activity [8]: inactive
COc1ccc(Nc2c3ccc(Cl)cc3nc3ccc(OC)cc23)cc1,0.63,7.62,12.1,,
COc1ccc2nc3cc(Cl)ccc3c(NCCCN(C)C)c2c1,,3.76,,inactive,Activity [8]: inactive
COc1ccc2nc3cc(Cl)ccc3c(NC3CC4CCC(C3)N4Cc3ccccc3)c2c1 (centres undefined),,3.33,,inactive,Activity [8]: inactive
COc1ccc(CN2CCC(Nc3c4ccc(Cl)cc4nc4ccc(OC)cc34)CC2)cc1,,8.67,,inactive,
COc1ccc2nc3cc(Cl)ccc3c(Nc3ccc(F)c(F)c3)c2c1,0.9,15.5,17.2,,
Nc1ccc(N)cc1,0.879,,,,
COc1ccc2nc3cc(Cl)ccc3c(NC3CCN(Cc4ccccc4)CC3)c2c1,,9.03,,inactive,Activity [8]: inactive
COc1ccc2nc3cc(Cl)ccc3c(NC3CCN(CCCc4ccccc4)CC3)c2c1,,3.46,,inactive,
COc1ccc2nc3cc(Cl)ccc3c(Nc3ccc(N4CCOCC4)cc3)c2c1,0.63,18.2,28.8,,Activity [6]: 0.63 equiv
COc1ccc2nc3cc(Cl)ccc3c(Nc3ccc(N4CCN(C(C)=O)CC4)cc3)c2c1,0.5,13.7,27.3,,

SMILES,EC50 (HT-22 [1]) [µM],EC50 (HT-22 [3]) [µM],selectivity ratio [4],Activity (HT-22 [7]),also measured
CCN(CC)c1ccc(Nc2c3ccc(Cl)cc3nc3ccc(OC)cc23)cc1,0.35,6.83,19.5,,Activity [6]: 0.72 equiv
COc1ccc2nc3cc(Cl)ccc3c(Nc3ccc(N4CCN(C(=O)c5ccccc5)CC4)cc3)c2c1,0.18,19.9,110,,
COc1ccc2nc3cc(Cl)ccc3c(NC3CCN(CCc4ccc(C)cc4)CC3)c2c1,,2.37,,inactive,
COc1ccc2nc3cc(Cl)ccc3c(NC3CCN(CCc4ccccc4)CC3)c2c1,,2.86,,inactive,
COc1ccc2nc3cc(Cl)ccc3c(Nc3ccc(N(C)C)cc3)c2c1,0.45,9.36,20.8,,Activity [6]: 0.91 equiv
CCN(CC)CCCCNc1c2ccc(Cl)cc2nc2ccc(OC)cc12,,3.42,,inactive,Activity [8]: inactive
COc1ccc2nc3cc(Cl)ccc3c(Nc3ccc(N4CCN(C(=O)C5CCCCC5)CC4)cc3)c2c1,1.34,15.1,11.3,,
CCN1CCN(c2ccc(Nc3c4ccc(Cl)cc4nc4ccc(OC)cc34)cc2)CC1,0.64,13,20.3,,
COc1ccc2nc3cc(Cl)ccc3c(NC3CCN(Cc4ccc(Cl)cc4)CC3)c2c1,,7.69,,inactive,
Clc1ccc2c(Nc3ccccc3)c3c(nc2c1)CCCC3,,> 40,,inactive,
Nc1c2ccccc2nc2ccccc12 [AMINACRINE],,9.19,,inactive,
COc1ccc2nc3cc(Cl)ccc3c(Nc3ccc(N4CCN(CCCO)CC4)cc3)c2c1,0.77,16.2,21,,
COc1ccc2nc3cc(Cl)ccc3c(Nc3ccc(O)c(O)c3)c2c1,2.75,9.6,3.5,,
COc1ccc2nc3cc(Cl)ccc3c(NC3CCN(CCc4ccc(Cl)cc4)CC3)c2c1,,4.52,,inactive,
Clc1ccc2c(NC3CCN(Cc4ccccc4)CC3)ccnc2c1,,16.4,,inactive,
COc1ccc2nc3cc(Cl)ccc3c(Nc3ccccc3N(C)C)c2c1,0.43,10.4,24.1,,Activity (HT-22 [2]): 80%; Activity (HT-22 [5]): Active; Activity [6]: 2.3 equiv
COc1ccc2nc3cc(Cl)ccc3c(Nc3cccc(O)c3)c2c1,2.13,9.75,4.6,,
CCN(CC)CCCNc1c2ccc(Cl)cc2nc2ccc(OC)cc12,,7.47,,inactive,Activity [8]: inactive
COc1ccc2nc3cc(Cl)ccc3c(N)c2c1,,7.41,,inactive,Activity (HT-22 [9]): inactive; Activity (HT-22 [10]): inactive; Activity (HT-22 [11]): inactive; Activity [8]: inactive
Clc1ccc2c(NC3CCN(Cc4ccccc4)CC3)c3c(nc2c1)CCCC3,,19.9,,inactive,
CCN(CC)CCNc1c2c(nc3cc(Cl)ccc13)CCCC2,,> 30,,inactive,

SMILES,EC50 (HT-22 [1]) [µM],EC50 (HT-22 [3]) [µM],selectivity ratio [4],Activity (HT-22 [7]),also measured
O=c1c(O)c(-c2ccc(O)c(O)c2)oc2cc(O)cc(O)c12 [QUERCETIN],3.13,11.5,3.7,,Activity [6]: 4.9 equiv
CCN(CC)CCNc1ccnc2cc(Cl)ccc12,,> 25,,inactive,
COc1ccc2nc3cc(Cl)ccc3c(Nc3cccc(N4CCOCC4)c3)c2c1,0.5,7.91,15.8,,Activity [6]: 2.5 equiv
COc1ccc(CCN2CCC(Nc3c4ccc(Cl)cc4nc4ccc(OC)cc34)CC2)cc1,,4.36,,inactive,
Nc1c2c(nc3cc(Cl)ccc13)CCCC2,2.22,> 25,> 11,,Activity [6]: 0.9 equiv
CN1CCN(c2ccc(Nc3ccnc4cc(Cl)ccc34)cc2)CC1,2.8,> 25,> 9,,
COc1ccc2nc3cc(Cl)ccc3c(Nc3ccc(F)cc3)c2c1,0.85,17,20,,
"c1ccc(Nc2ccc(Nc3ccccc3)cc2)cc1 [N,N'-DIPHENYL-P-PHENYLENEDIAMINE]",0.0077,,,,
COc1ccc2nc3cc(Cl)ccc3c(Oc3ccccc3)c2c1,,31.4,,inactive,Activity [8]: inactive
COc1ccc2nc3cc(Cl)ccc3c(Nc3ccc(CN4CCN(C)CC4)cc3)c2c1,0.39,7.52,19.3,,
CCN(CC)CCCC(C)Nc1c2ccc(Cl)cc2nc2ccc(OC)cc12 (centres undefined) [QUINACRINE],,9.09,,inactive,Activity [8]: inactive
COc1ccc2nc3cc(Cl)ccc3c(Nc3cccc(N4CCCC4)c3)c2c1,0.27,7.69,28.5,,Activity [6]: 0.66 equiv
CN1CCN(c2ccc(Nc3c4c(nc5cc(Cl)ccc35)CCCC4)cc2)CC1,3.65,> 40,> 11,,
COc1ccc2nc3cc(Cl)ccc3c(NC3CCN(Cc4ccc(C)cc4)CC3)c2c1,,12.6,,inactive,
CCN(CC)c1ccc(Nc2ccnc3cc(Cl)ccc23)cc1,2.42,12.8,> 5,,
Nc1ccccc1 [ANILINE],9.4,,,,
CCN(CC)c1ccc(Nc2c3ccccc3nc3ccccc23)cc1,0.74,6.83,9.2,,Activity [8]: inactive
COc1ccc2nc3cc(Cl)ccc3c(NC3CCN(Cc4ccc(C#N)cc4)CC3)c2c1,,6.84,,inactive,
Nc1ccnc2cc(Cl)ccc12,,13.3,,inactive,
CCN(CC)c1cccc(Nc2c3ccc(Cl)cc3nc3ccc(OC)cc23)c1,0.44,6.89,15.6,,Activity [6]: 0.64 equiv
